Laboratory results from US7718666B2, “Pyrido [2,1-a] isoquinoline derivatives” (Hoffmann-La Roche Inc., priority 2003, dated 2010).

Molecular target: human DPP-IV (Homo sapiens, UniProt P27487)
Assay: DPP-IV activity assay (fluorogenic / colorimetric), IC50 determination
Protocol: Activity of DPP-IV inhibitors are tested with natural human DPP-IV derived from a human plasma pool or with recombinant human DPP-IV. Human citrate plasma from different donors is pooled, filtered through a 0.2 micron membrane under sterile conditions and aliquots of 1 ml are shock frozen and stored at −120° C. until used. In the colorimetric DPP-IV assay 5 to 10 μl human plasma and in the fluorometric assay 1.0 μl of human plasma in a total assay volume of 100 μl is used as an enzyme source. […] Human DPP-IV is expressed and purified from the culture medium using conventional column chromatography including size exclusion and anion and cation chromatography. […] In the calorimetric DPP-IV assay 20 ng rec.-h DPP-IV and in the fluorometric assay 2 ng rec-h DPP-IV in a total assay volume of 100 μl is used as an enzyme source.
Initial rate constants are calculated by best fit linear regression.
The absorption of pNA liberated from the calorimetric substrate is detected in a Packard SpectraCount at 405 nm continuosly every 2 minutes for 30 to 120 minutes. Initial rate constants are calculated by best fit linear regression.
DPP-IV activity assays are performed in 96 well plates at 37° C. in a total assay volume of 100 μl. […]
Kinetic parameters of the enzyme reaction are calculated at least 5 different substrate concentrations and at least 5 different test compound concentrations.

Chain of human DPP-IV (P27487 31-766): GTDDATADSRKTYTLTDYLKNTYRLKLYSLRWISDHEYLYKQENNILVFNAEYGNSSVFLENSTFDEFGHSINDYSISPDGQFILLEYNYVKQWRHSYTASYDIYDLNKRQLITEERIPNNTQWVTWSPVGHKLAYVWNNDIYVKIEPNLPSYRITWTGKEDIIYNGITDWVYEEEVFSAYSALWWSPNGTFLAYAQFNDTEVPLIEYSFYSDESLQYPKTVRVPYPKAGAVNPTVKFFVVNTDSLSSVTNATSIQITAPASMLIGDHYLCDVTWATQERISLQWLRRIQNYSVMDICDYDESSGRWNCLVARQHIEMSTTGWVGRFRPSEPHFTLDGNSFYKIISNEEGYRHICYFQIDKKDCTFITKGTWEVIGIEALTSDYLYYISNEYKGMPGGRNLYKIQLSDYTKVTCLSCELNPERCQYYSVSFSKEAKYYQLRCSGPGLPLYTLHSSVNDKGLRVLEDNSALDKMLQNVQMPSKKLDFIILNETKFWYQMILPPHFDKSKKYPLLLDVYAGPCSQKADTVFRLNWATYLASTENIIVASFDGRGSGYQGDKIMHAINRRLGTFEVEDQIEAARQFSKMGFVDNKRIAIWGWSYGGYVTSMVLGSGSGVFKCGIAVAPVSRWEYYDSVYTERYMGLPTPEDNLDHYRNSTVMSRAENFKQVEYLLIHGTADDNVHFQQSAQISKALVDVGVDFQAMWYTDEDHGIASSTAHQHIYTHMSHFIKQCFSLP

Row | SMILES | IC50 [nM]
1 | COc1cc2c(cc1OC)[C@@H]1C[C@H](N)[C@@H](n3ccc(C)c3)CN1CC2 (racemic) [Example 33, rac-9,10-Dimethoxy-3β-(3-methyl-pyrrol-1-yl)-1,3,4,6,7,11bβ-hexahydro-2H-pyrido[2,1-a]isoquinolin-2α-ylamine] | 5.4
2 | COc1cc2c(cc1OC)[C@@H]1C[C@H](N)[C@@H](c3cc(C)ccn3)CN1CC2 [Example 9, 9,10-Dimethoxy-3(S)-(4-methyl-pyridin-2-yl)-1,3,4,6,7,11b(S)-hexahydro-2H-pyrido[2,1a]isoquinolin-2(S)-ylamine] | 11.5
